This is an account of results in patent US20070027175A1, “Antineoplastic activities of ellipticine and its derivatives” (priority 2005, published 2007).

Like-named read-outs stand apart in the source and are kept apart here.

The subject of assay [1] is NCI-60 cancer panel. To be noted: average across the cell lines of the concentration at which growth is inhibited 50%; unit in the High Conc. footnote; cited from earlier work.
The test system of assay [2] is Ark myeloma cell line. Briefly: CellTiter-Glo luminescent cell viability assay, Ark. In kind it is cell-based, human. More on the design: unit of the concentration uncertain. Here is the method: (§1) The dosage of each derivative was set at 2, 0.2 and 0.02 mM. A cell culture medium control and 0.5% DMSO control was maintained in each experiment. The cell viability was tested each day over a period of five days using the CellTiter-Glo luminescent cell viability assay kit from Promega Co.
(§2) Cell Titer-Glo luminescent cell viability assay kit from Promega Co (Madison, Wis.) was used to determine cell growth inhibition by the various compounds tested. The kit determines cell viability by quantifying the amount of ATP present in the cell culture medium. Presence of ATP signals the presence of metabolically active cells (3). The intensity of luminescence was measured by a computerized luminometer (Promega, Co. Madison, Wis.). Each well was read five times within 30 minutes of adding Cell Titer-Glo reagent mixture.
(§3) Cells were contacted with the antineoplastic agents in ninety six well culture plates. The concentration of each neoplastic agent was maintained a constant. A cell culture medium control and 0.5% DMSO control were maintained in each set of experiments. The cell viability was tested every day using the CellTiter-Glo luminescent cell viability kit from Promega Co. (Madison, Wis.) for a period of five days.
(In general: In ATP-based viability assays light output follows the ATP content of the culture.)

Assay [3] has as its system CAG myeloma cell line. Put plainly: CellTiter-Glo luminescent cell viability assay, CAG. In kind it is cell-based, human. More on the design: unit of the concentration uncertain. How it is done: as §1, §2, §3
Assay [4] concerns RPMI8226 myeloma cell line. Put plainly: CellTiter-Glo luminescent cell viability assay, RPMI8226. The class given is cell-based, human. Set-up: unit of the concentration uncertain. How it is done:
as §1
Cell Titer-Glo luminescent cell viability assay kit from Promega Co (Madison, Wis.) was used to determine cell growth inhibition by the various compounds tested. The kit determines cell viability by quantifying the amount of ATP present in the cell culture medium. Presence of ATP signals the presence of metabolically active cells (3). The intensity of luminescence was measured by a computerized luminometer (Promega, Co. Madison, Wis.). Each well was read five times within 30 minutes of adding Cell Titer-Glo reagent mixture. […]

Assay [5] relates to U266 myeloma cell line. Set-up: cell viability (CellTiter-Glo luminescent assay): dose or concentration left out as unconfirmed. To be noted: U266. How it is done:
as §1
U266 cell line was one of 12 myeloma cell lines used in screening of anti-myeloma agents. In FIG. 10A, cells were treated with 14 ellipticine derivatives (0.5 mM) obtained from the DTP; control cells were untreated. Ellipticine derivatives are coded with NSC identifiers. For 5 days, cell viability was measured every 24 hours using CellTiter-Glo Luminescent Assay. […] In FIG. 10B, U266 cells, along with six other myeloma cell lines, were co-cultured in direct contact with human fetal bone mesenchymal cells and treated with EPED3 (0.5 mM and 2 mM) or Velcade (0.5 mM); control cells were untreated. Cell proliferation was assessed by MTT assay every 24 hours for 5 days. […] Error bars indicate standard deviation.
as §2, §3

With `O=C1N(c2ccc(Cl)cc2)C(=O)C2(SC=NN2Cc2ccccc2)N1c1ccc(Cl)cc1` (stereo not drawn) [NSC 630740], the “Mean GI50” value in assay [1] is listed as −4.26 log^10 molar.

Regarding `CSc1nc[nH]c1C(N)=S` [NSC 684041], in assay [1], the “Mean GI50” value is on record as −4.11 log^10 molar.

As for `Cc1ccc(S(=O)(=O)N=NC=C2c3ccccc3N(O)c3ccccc32)cc1` [NSC 627891], the “Mean GI50” value in assay [1] is recorded as −5.43 log^10 molar.

In the case of `C#CCN(N=O)C(=O)NCCCC(NC(C)=O)C(=O)NCc1ccccc1` (stereo not drawn) [NSC 645583], the “Mean GI50” value in assay [1] was −4.17 log^10 molar.

For the compound `CCCCC(=O)OC[n+]1ccc2c(C)c3[nH]c4ccc(OC)cc4c3c(C)c2c1.[I-]` [NSC 637126], in assay [1], the “Mean GI50” value was −6.40 log^10 molar.

Consider `O=C1/C(=C/C=C/c2ccccc2)CCC1CNc1ccccc1` (stereo not drawn) [NSC 661238], for which the “Mean GI50” value in assay [1] is given as −4.47 log^10 molar.

Regarding `O=C(/C=C/c1ccc(Cl)c(Cl)c1)c1ccc(Cl)cc1Cl` [NSC 640531], the “Mean GI50” value in assay [1] is −4.99 log^10 molar.

With `Cc1c2ccncc2c(C)c2c1[nH]c1ccccc12` [Ellipticine, 5,11-Dimethyl-6H-Pyridol[4,3]carbazole], the “cell viability (CellTiter-Glo luminescent assay)” value (“cell viability” below) is reported as 120,709 in assay [2] (0.02 (unit uncertain), Day 1); 208,608 in assay [2] (0.02 (unit uncertain), Day 2); 268,420 in assay [2] (0.02 (unit uncertain), Day 3); 802,063 in assay [2] (0.02 (unit uncertain), Day 4); 1,049,792 in assay [2] (0.02 (unit uncertain), Day 5); 125,251 in assay [2] (0.2 (unit uncertain), Day 1). The “cell viability” value in assay [2] (0.2 (unit uncertain), Day 2) was 230,950; in assay [2] (0.2 (unit uncertain), Day 3), 331,985; in assay [2] (0.2 (unit uncertain), Day 4) it was 877,082; in assay [2] (0.2 (unit uncertain), Day 5), 1,183,902; in assay [2] (2 (unit uncertain), Day 1), 86,010; in assay [2] (2 (unit uncertain), Day 2) it was 98,439. The “cell viability” value was 70,824 in assay [2] (2 (unit uncertain), Day 3); 44,913 in assay [2] (2 (unit uncertain), Day 4); 10,996 in assay [2] (2 (unit uncertain), Day 5); 200,429 in assay [3] (0.02 (unit uncertain), Day 1); 557,030 in assay [3] (0.02 (unit uncertain), Day 2); 1,243,718 in assay [3] (0.02 (unit uncertain), Day 3). The “cell viability” value in assay [3] (0.02 (unit uncertain), Day 4) was 2,718,974; in assay [3] (0.02 (unit uncertain), Day 5), 4,443,641; in assay [3] (0.2 (unit uncertain), Day 1) it was 196,263; in assay [3] (0.2 (unit uncertain), Day 2) it was 541,300; in assay [3] (0.2 (unit uncertain), Day 3), 1,117,650; in assay [3] (0.2 (unit uncertain), Day 4), 2,568,444. Moreover, the “cell viability” value is on record as 4,443,292 in assay [3] (0.2 (unit uncertain), Day 5); 136,450 in assay [3] (2 (unit uncertain), Day 1); 200,722 in assay [3] (2 (unit uncertain), Day 2); 234,414 in assay [3] (2 (unit uncertain), Day 3); 308,480 in assay [3] (2 (unit uncertain), Day 4); 281,302 in assay [3] (2 (unit uncertain), Day 5). For the same compound, the “cell viability” value is given as 110,290 in assay [4] (0.02 (unit uncertain), Day 1); 244,140 in assay [4] (0.02 (unit uncertain), Day 2); 390,151 in assay [4] (0.02 (unit uncertain), Day 3); 898,067 in assay [4] (0.02 (unit uncertain), Day 4); 966,857 in assay [4] (0.02 (unit uncertain), Day 5); 107,014 in assay [4] (0.2 (unit uncertain), Day 1). In addition, the “cell viability” value in assay [4] (0.2 (unit uncertain), Day 2) was 235,145; in assay [4] (0.2 (unit uncertain), Day 3), 355,794; in assay [4] (0.2 (unit uncertain), Day 4), 774,806; in assay [4] (0.2 (unit uncertain), Day 5), 921,077; in assay [4] (2 (unit uncertain), Day 1), 87,440; in assay [4] (2 (unit uncertain), Day 2), 115,263. In addition, the “cell viability” value was 110,776 in assay [4] (2 (unit uncertain), Day 3); 126,944 in assay [4] (2 (unit uncertain), Day 4); 85,699 in assay [4] (2 (unit uncertain), Day 5); 31,950 in assay [5] (0.02, Day 1); 47,812 in assay [5] (0.02, Day 2); 66,571 in assay [5] (0.02, Day 3). Also, the “cell viability” value was 115,083 in assay [5] (0.02, Day 4); 152,839 in assay [5] (0.02, Day 5); 32,490 in assay [5] (0.2, Day 1); 47,622 in assay [5] (0.2, Day 2); 62,648 in assay [5] (0.2, Day 3); 106,989 in assay [5] (0.2, Day 4). For the same compound, the “cell viability” value in assay [5] (0.2, Day 5) is listed as 132,439; in assay [5] (2, Day 1) it was 23,680; in assay [5] (2, Day 2), 31,682; in assay [5] (2, Day 3), 33,129; in assay [5] (2, Day 4) it was 40,656; in assay [5] (2, Day 5), 38,403.

Regarding `C=C1C(OC(=O)/C=C/c2ccccc2)CC(OC(C)=O)C2(C)C1CC1CC(OC(C)=O)C(C)=C(C(OC(C)=O)C2OC(C)=O)C1(C)C` (stereo not drawn) [NSC 636859, Cuspidatin C], in assay [1], the “Mean GI50” value is listed as −4.46 log^10 molar.

Turning to `Cc1cc2[nH]c3c(C#N)c(-c4ccccc4)c(N=Nc4cccc(C(F)(F)F)c4)c(=O)n3c2cc1C` [NSC 699959], the “Mean GI50” value in assay [1] is listed as −4.53 log^10 molar.

Consider `COc1ccc2[nH]c3c(C)c4cc[n+](COC(=O)c5ccccc5)cc4c(C)c3c2c1` [NSC 632620], for which the “Mean GI50” value in assay [1] is given as −6.52 log^10 molar.

For the compound `CN(C)CC1CCCCCC(Br)C1=O.O=C(O)C(=O)O` (stereo not drawn) [NSC 130789], the “Mean GI50” value in assay [1] is −4.96 log^10 molar.

As for `C[C@@H]1C[C@@H]2OC(=O)[C@]3(C)[C@H]2[C@@H](OC3(C)O)[C@]2(C)C(=O)C=C[C@@H]12` (stereo partly drawn) [NSC 19942, Tenulin], the “Mean GI50” value in assay [1] is −4.68 log^10 molar.

For `CCCCCCC(=O)OC[n+]1ccc2c(C)c3[nH]c4ccccc4c3c(C)c2c1` [NSC 637132], in assay [1], the “Mean GI50” value was −6.09 log^10 molar.

As to `Nc1ncnc2c1ncn2[C@@H]1C=C(CO)[C@@H](O)[C@H]1O` [NSC 316458, Neplanocin A], in assay [1], the “Mean GI50” value is recorded as −5.43 log^10 molar.

Take `CNC(=S)NC(=S)N(C)C` [NSC 622693]: the “Mean GI50” value in assay [1] is −4.53 log^10 molar.
